Laboratory results as given in patent publication US6972343B1, “Quaternary bis-ammonium salt precursors and their uses as prodrugs having an antiparasitic activity” (CNRS, priority 1999, dated 2005).
Where “and” joins values, the source holds several entries; their conditions need not be identical. Identical values can stand only once. Counter-ions that a name gives are not always drawn. Like-named read-outs stand apart in the source and are kept apart here. Marks after values point to notes of the source that are not given here.

How the values were obtained:
[1] = tested on: P. falciparum; test: Antimalarial activity against P. falciparum in vitro (Desjardins [3H]hypoxanthine incorporation); assay type: cell-based
Experimental: FIG. 1, the anti-malarial action of a precursor of thiazolium (designated by TE4c in the examples), and corresponding thiazolium (T4) as a function of the concentration of drug, according to the Desjardins test, (Desjardins R. E. et al, Antimicrob. Agents Chemother. 1979, 16, 710-718),
The IC50 measurements are determined vis-à-vis P. falciparum according to the Desjardins method in which the incorporation of [^3H] hypoxanthine (FIG. 1) into the nucleic acids is an indicator of cell viability. In each case, optical microscopy controls are carried out.
(§1) The IC50 is the concentration which inhibits by 50% the in vitro growth of P. falciparum: the LD50 is the lethal dose corresponding to the death of 50% of the mice and the ED50 is the effective dose for inhibiting by 50% the in vivo growth of P. vinckei according to a 4-day suppressive test, TI corresponds to the therapeutic index, TI=LD50 (semi-chronic)/ED50; ip: intraperitoneal administration; po: per os.

[2] = tested on: P. vinckei; test: animal or person; assay type: in vivo; settings: mouse, 4-day suppressive test, TE4c in 50/50 PEG/castor oil; for ED50: Plasmodium vinckei, 96 h, read-out: In vivo ED50 (mg/kg) (P. vinckei)
Excerpt: (§2) B) Antimalarial Activity in vivo Against a Mouse Infected by P. vinckei and Tolerance After Administration in Acute or Semi-chronic Conditions.
as §1

[3] = Tolerance in the mouse: LD50 after acute or semi-chronic administration; assay type: in vivo; settings: for Oral absorption index (LD50 po/LD50 ip ratio, acute): acute administration; for LD50 / LD50 at 4 days: in vivo; for LD50 / In vivo LD50 (mg/kg) (mouse) acute: single dose; for LD50 at 4 days / In vivo LD50 (mg/kg) (mouse) semi-chronic: twice per day for 4 consecutive days
Excerpt: as §2, §1

[4] = tested on: P. falciparum (FVO strain); test: Antimalarial activity against Plasmodium falciparum in the Aotus monkey; assay type: in vivo; settings: Aotus monkeys
Experimental: 3 Aotus monkeys were infected with P. falciparum (FVO strain). When the blood parasitemia reached 1% (2 monkeys) or 6% (1 monkey), treatment by intramuscular route at a rate of 2 injections per day of TE4c (2mg/kg), for 8 days, was carried out.

[5] = Pharmacokinetics / serum level in the mouse (ex vivo bio-test on P. falciparum)
Experimental: The results of the pharmacokinetic parameters after administration by intraperitoneal or oral route in a mouse for a prodrug of disulphice type (TS3b) and a prodrug of thioester type (TE4c) are presented hereafter.
(§3) For determination of the serum level, bio-tests are used ex vivo: briefly, the medicament is administered to the animal, then repeated blood samples are taken. The sera are decomplemented for 30 minutes at 56° C. The active metabolite content is then determined by incubation of different concentrations (dichotomic dilution) of each serum, in the presence of suspensions of erythrocytes infected by P. falciparum, according to the DESJARDINS method with [^3H] hypoxanthine.
The results are expressed in IS50, which corresponds to the percentage of serum (containing an active metabolite) capable of inhibiting the growth of P. falciparum by 50%.
This value is then converted into a serum concentration, (usually expressed in ng/ml) by testing the active compound directly (without passing through the animal), on the same suspension infected by P. falciparum and by determining its IC50 value (in ng/ml) [serum level=IC50] (in ng/ml)×100/IS50 (in %)].
(§4) The results are expressed as the log (serum level of medicaments), as a function of time, which allows the evaluation of the half-time for distribution to the serum compartment t1/2(d); the half-time for elimination of the serum compartment (t1/2(e)); of C0), corresponding to the serum level originally extrapolated during the elimination phase; the AUC (which indicates the quantity of drug circulating in the blood stream); and the relative bio-availability in the oral route administration method, as against the intraperitoneal route method [AUC (po)/AUC (ip)] which is an indicator of the degree of absorption by oral route.

[6] = tested on: Babesia divergens; test: Antibabesiasis activity in vitro against Babesia divergens; assay type: cell-based
Experimental: (§5) The products TE4c, TS3b and P1 were also evaluated in vitro for their activities against Babesia divergens and B. canis.

[7] = Pharmacokinetics in the monkey (ex vivo bio-test serum level); settings: Macaca fascicularis, intramuscular 4 mg/kg
Experimental: as §3
The results are expressed in IS50, which corresponds to the percentage of serum (containing an active metabolite) capable of inhibiting the growth of P. falciparum by 50%. […]
as §4, with “route. […]” for “route.”

[8] = tested on: B. canis; test: Antibabesiasis activity in vitro against B. canis; assay type: cell-based
Experimental: as §5

[9] = in vitro growth of P. falciparum, [3H]hypoxanthine incorporation, 48 hours test, read-out: IC50
[10] = ip, TE4c value corresponds to death of only 25% of the mice, read-out: In vivo LD50 (mg/kg) (mouse) semi-chronic
[11] = po, read-out: In vivo LD50 (mg/kg) (mouse) semi-chronic
[12] = ip, TE4c value corresponds to death of only 25% of the mice
[13] = 3 mg/kg ip and 50 mg/kg po, both routes
[14] = ip 3 mg/kg TE4c, active metabolite considered to be T4
[15] = oral 50 mg/kg TE4c, active metabolite considered to be T4
[16] = oral route, higher dose series (150 mg/kg po)

Compound: 1,12-decamethylene bis[4-methyl-5-(2-methoxyethyl)thiazolium] diiodide [T4]
- IC50 [1, 9]: 0.65 nM

Compound: 1,16-hexadecamethylenebis[4-methyl-5-(2-methoxyethyl)thiazolium] diiodide [T8]
- IC50 [1, 9]: 1.1 nM

Compound: 2,15-(N,N′-diformyl-N,N′-dibenzyl)diamino-1,16-S-thiobenzoyl-hexadeca-1,15-diene [TE16]
- IC50 [1, 9]: 12 nM

Compound: C[N+]1(CCCCCCCCCCCCCCCC[N+]2(C)CCCC2)CCCC1 [G25, 1,16-hexadecamethylene bis-(N-methylpyrrolidinium), reference compound]
- ED50 ([2]; ip): 0.22 mg/kg
- ED50 ([2]; po): ~15 mg/kg
- IC50 ([1]; Plasmodium falciparum): 0.6 nM
- Oral absorption index (LD50 po/LD50 ip ratio, acute) [3]: 87
- LD50 ([3]; ip): 1.27 mg/kg
- LD50 at 4 days [3, 10]: 1.15 mg/kg
- LD50 ([3]; po): 130 mg/kg
- LD50 at 4 days [3, 11]: 65 mg/kg

Compound: CC(Cl)CCCN(C)CCCCCCCCCCCCCCCCN(C)CCCC(C)Cl (stereo not shown) [P2, N,N′-dimethyl-N,N′-(4-chloropentyl)-1,16-hexadecanediamine hydrochloride]
- IC50 [1, 9]: 0.5 nM

Compound: Cc1c(CCO)sc[n+]1CCCCCCCCCCCC[n+]1csc(CCO)c1C.[Br-].[Br-] [T3, 1,12-dodecamethylene bis [4-methyl-5-(2-hydroxyethyl)thiazolium] dibromide]
- IC50 [1, 9]: 2.25 nM
- Oral absorption index (LD50 po/LD50 ip ratio, acute) [3]: 70
- In vivo LD50 (mg/kg) (mouse) acute ([3]; ip): 10 mg/kg
- In vivo LD50 (mg/kg) (mouse) semi-chronic [3, 12]: 7.5 mg/kg
- In vivo LD50 (mg/kg) (mouse) acute ([3]; po): 700 mg/kg
- In vivo LD50 (mg/kg) (mouse) semi-chronic ([3]; po): 160 mg/kg

Compound: Cc1csc[n+]1CCCCCCCCCCCC[n+]1cscc1C [T6, 1,12-dodecamethylenebis(4-methylthiazolium) diiodide]
- IC50 [1, 9]: 3 nM

Compound: Cc1c(CCOCCCCCCOCCc2sc[n+](Cc3ccccc3)c2C)sc[n+]1Cc1ccccc1 [T10, 3,10-dioxadodecamethylenebis[5-(1-benzyl, 4-methyl)-thiazolium] dibromide]
- IC50 [1, 9]: 2.5 nM

Compound: CCOC(=O)CCc1c(CCCCCCCCCCCCc2sc[n+](Cc3ccccc3)c2CCC(=O)OCC)sc[n+]1Cc1ccccc1 [T13, dodecamethylenebis[5-(1-benzyl-4-ethoxycarbonylethyl)-thiazolium] dibromide]
- IC50 [1, 9]: 250 nM

Compound: c1ccc(Cc2csc[n+]2CCCCCCCCCCCC[n+]2cscc2Cc2ccccc2)cc1 [T16, dodecamethylenebis[4-(1-benzyl)-thiazolium] dibromide]
- IC50 [1, 9]: 10 nM

Compound: CC(=C1CCOC(=O)S1)N(C=O)CCCCCCCCCCCCN(C=O)C(C)=C1CCOC(=O)S1 [TE3, N,N′-diformyl-N,N′-di[1(2-oxo-4,5-dihydro-1,3-oxathian-4-ylidene)ethyl]1,12-diaminododecane]
- IC50 [1, 9]: 3 nM and 2.6 nM

Compound: COCCC(SC(=O)c1ccccc1)=C(C)N(C=O)CCCCCCCCCCCCN(C=O)C(C)=C(CCOC)SC(=O)c1ccccc1 [TE4c, N,N′-diformyl-N,N′-di[1-methyl-2-S-thiobenzoyl-4-methoxybut-1-enyl]-1,12-diaminododecane]
- recurrence of parasitemia after treatment ([4]; 6 months following the treatment): no further occurrence was observed in the 6 months following the treatment
- blood parasitemia after treatment ([4]; parasitemia 1% or 6% at start, im 2 mg/kg, 2 injections per day, 8 days): completely eliminated
- time of first serum level peak [5, 13]: in less than two hours
- time of second serum level peak [5, 13]: around 15 hours
- relative bioavailability [AUC (po)/AUC (ip)] ([5]; 50 mg/kg po vs 3 mg/kg ip): 5%
- time of second serum level peak ([5]; higher doses 10 mg/kg ip and 150 mg/kg po): around 23 hours
- AUC [5, 14]: 3300 ng·h/mL
- C0 [5, 14]: 180 ng/mL
- t1/2 [5, 14]: 12 h
- AUC [5, 15]: 2700 ng·h/mL
- C0 [5, 15]: 130 ng/mL
- C0 [5, 16]: 1000 ng/mL
- t1/2 [5, 16]: around 10 hours
- In vivo ED50 (mg/kg) (P. vinckei) ([2]; ip): 1 mg/kg
- IC50 [1, 9]: 2 nM
- Oral absorption index (LD50 po/LD50 ip ratio, acute) [3]: ˜10
- In vivo LD50 (mg/kg) (mouse) acute ([3]; ip): 100 mg/kg
- In vivo LD50 (mg/kg) (mouse) semi-chronic [3, 12]: ≧30^d mg/kg
- In vivo LD50 (mg/kg) (mouse) acute ([3]; po): ˜1000 mg/kg
- In vivo LD50 (mg/kg) (mouse) semi-chronic ([3]; po): ˜300 mg/kg

Compound: CCN(CC)Cc1ccc(C(=O)SC(CCOC)=C(C)N(C=O)CCCCCCCCCCCCN(C=O)C(C)=C(CCOC)SC(=O)c2ccc(CN(CC)CC)cc2)cc1 [TE4f, N,N′-diformyl-N,N′-di[1-methyl-2-S-(p-diethylaminomethylphenylcarboxy)-thio-4-methoxybut-1-enyl]-1,12-diaminododecane]
- IC50 [1, 9]: 2.3 nM

Compound: COCCC(SC(=O)c1ccc(CN2CCOCC2)cc1)=C(C)N(C=O)CCCCCCCCCCCCN(C=O)C(C)=C(CCOC)SC(=O)c1ccc(CN2CCOCC2)cc1 [TE4g, N,N′-diformyl-N,N′-di[1-methyl-2-S-(p-morpholino-methylphenylcarboxy)-thio-4-methoxybut-1-enyl]-1,12-diaminododecane]
- IC50 [1, 9]: 2.3 nM

Compound: COc1ccc(C(=O)SC(CCOCCCCCCOCCC(SC(=O)c2ccc(OC)cc2)=C(C)N(C=O)Cc2ccccc2)=C(C)N(C=O)Cc2ccccc2)cc1 [TE10, 2,17-(N,N′-diformyl-N,N′-dibenzyl)diamino-3,16-S-thio-p-methoxybenzoyl-6,13-dioxaoctadeca-2,16-diene]
- IC50 [1, 9]: 12 nM

Compound: CCOC(=O)CC(=C(CCCCCCCCCCCCC(SC(=O)c1ccccc1)=C(CC(=O)OCC)N(C=O)Cc1ccccc1)SC(=O)c1ccccc1)N(C=O)Cc1ccccc1 [TE13, ethyl 3,18-(N,N′-diformyl-N,N′-dibenzyl)diamino-4,17-S-thiobenzoyleicosa-3,17-dienedioate]
- IC50 [1, 9]: 650 nM

Compound: CCCSSC(CCO)=C(C)N(C=O)CCCCCCCCCCCCN(C=O)C(C)=C(CCO)SSCCC [TS3b, N,N′-diformyl-N,N′-di[1-methyl-2-propyl-dithio-4-hydroxybut-1-enyl]-1,12-diaminododecane]
- IC50 [6]: < 20 nM
- time of first serum level peak [7]: in less than two hours
- IC50 [8]: < 20 nM
- ED50 ([2]; ip): ~7 mg/kg
- ED50 ([2]; po): ~180 mg/kg
- IC50 ([1]; Plasmodium falciparum, in vitro growth of P. falciparum, [3H]hypoxanthine incorporation, 48 hours test, read-out: IC50): 1.3 nM
- Oral absorption index (LD50 po/LD50 ip ratio, acute) [3]: 6.7
- LD50 at 4 days ([3]; ip, infected mice, ip, read-out: In vivo LD50 (mg/kg) semi-chronic in mice infected with malaria): 32 mg/kg
- LD50 ([3]; ip): 240 mg/kg
- LD50 at 4 days [3, 10]: 90 mg/kg
- LD50 ([3]; po): 1600 mg/kg
- LD50 at 4 days [3, 11]: 410 mg/kg

Compound: N,N′-diformyl-N,N′-di[1-methyl-2-S-(p-phthaloyl)-thio-4-methoxybut-1-enyl]-1,12-diaminododecane [TE4j]
- IC50 [1, 9]: 2.7 nM

Compound: N,N′-dimethyl-N,N′-(5-chloropentyl)-1,16-hexadecane diamine hydrochloride [P1]
- IC50 [1, 9]: 1.7 nM
